Reference: US20100068359A1, “PRESERVATIVE METHOD” (CONOPCO, INC., D/B/A UNILEVER, priority 2008, published 2010)

Columns and labels:
[1] = system: APRY yeast; assay: APRY yeast challenge in YM broth with equal molar salts; format: cell-based, Zygosaccharomyces bailii and/or Zygosaccharomyces rouxii
Procedure: • 1. The growth media of the Bidlas et al. reference was used (YM broth and stock pH (6.0). (Growth media—YMB, Sabourda, PDB • 2. Three salts (NaCl, KCl, NH4Cl) were added in a increasing level. […] The detailed salt amounts are shown in the Table 7 below. • 3. The target pH for all compositions was 5.5. • 4. The effects on APRY Yeast, instead of pathogens as in Bidlas et al. were studied. • 5. Inhibition was measured by CFUs (colony forming units) • 6. Dramatic increases in APRY yeast levels are observed after more than about two days.

[2] = system: APRY yeast; assay: Challenge study in full fat mayonnaise model, APRY yeast; format: cell-based, Zygosaccharomyces bailii and/or Zygosaccharomyces rouxii
Excerpt: • 1. […] Formula adjustments were made to keep aqueous acetic acid and sugar levels constant, i.e. % active/(% water+% active)×100, i.e., about 1.53% to about 1.54% aqueous acetic acid and about 6.32% to about 6.36% aqueous sugar. • 3. […] Analytical data supported that the per cent replacement targets were met, […] The results of the challenge study over a number of weeks were reported (see Challenge Data in the Tables 3, 4 and 5 below).

[3] = system: Z. bailii

SMILES | APRY yeast level in broth ([1]; 0.51 N salt, day 0) | APRY yeast level in broth ([1]; 0.51 N salt, day 1) | APRY yeast level in broth ([1]; 0.51 N salt, day ½) | APRY yeast level in broth ([1]; 1.03 N salt, day 0) | APRY yeast level in broth ([1]; 1.03 N salt, day 1) | APRY yeast level in broth ([1]; 1.03 N salt, day 1½) | APRY yeast level in broth ([1]; 1.03 N salt, day 2) | APRY yeast level in broth ([1]; 1.03 N salt, day ½) | APRY yeast level in broth ([1]; 1.54 N salt, day 0) | APRY yeast level in broth ([1]; 1.54 N salt, day 1) | APRY yeast level in broth ([1]; 1.54 N salt, day 1½) | APRY yeast level in broth ([1]; 1.54 N salt, day 2) | APRY yeast level in broth ([1]; 1.54 N salt, day 5) | APRY yeast level in broth ([1]; 1.54 N salt, day 6) | APRY yeast level in broth ([1]; 1.54 N salt, day ½) | APRY yeast level in broth ([1]; 2.05 N salt, day 0) | APRY yeast level in broth ([1]; 2.05 N salt, day 1) | APRY yeast level in broth ([1]; 2.05 N salt, day 1½) | APRY yeast level in broth ([1]; 2.05 N salt, day 2) | APRY yeast level in broth ([1]; 2.05 N salt, day ½) | other results
N.N.O=P(O)(O)O [DAP, di-ammonium hydrogen phosphate] | 17,600 CFUs | 324,000 CFUs | 8,100 CFUs | 21,000 CFUs | 10,200 CFUs | 24,000 CFUs | 250,000 CFUs | 7,100 CFUs | 6,000 CFUs | 10,300 CFUs | 2,000 CFUs | 6,700 CFUs | 120,900 CFUs | 117,600 CFUs | 13,000 CFUs | 10,000 CFUs | 11,500 CFUs | 6,000 CFUs | 7,100 CFUs | 9,600 CFUs | APRY yeast level in broth ([1]; 0.51 N salt, day 1½): 630,000 CFUs; APRY yeast level in broth ([1]; 1.54 N salt, day 8): 820,000 CFUs; APRY yeast level in broth ([1]; 1.54 N salt, day 11): 570,000 CFUs; APRY yeast level in broth ([1]; 1.54 N salt, day 13): 141,000 CFUs; APRY yeast level in broth ([1]; 1.54 N salt, day 14): 280,000 CFUs; APRY yeast level in broth ([1]; 2.05 N salt, day 5): 980 CFUs; APRY yeast level in broth ([1]; 2.05 N salt, day 6): 5,000 CFUs; APRY yeast level in broth ([1]; 2.05 N salt, day 8): 2,500 CFUs; APRY yeast level in broth ([1]; 2.05 N salt, day 11): 4,000 CFUs; APRY yeast level in broth ([1]; 2.05 N salt, day 13): 1,600 CFUs; APRY yeast level in broth ([1]; 2.05 N salt, day 14): 3,000 CFUs
[Cl-].[K+] [KCl, potassium chloride] | 3,800 CFUs | 280,000 CFUs | 14,200 CFUs | 12,000 CFUs | 78,000 CFUs | 772,000 CFUs | – | 12,300 CFUs | 13,800 CFUs | 11,600 CFUs | 85,000 CFUs | – | – | – | 7,900 CFUs | 7,300 CFUs | 3,300 CFUs | 8,000 CFUs | 68,000 CFUs | 7,900 CFUs | growth of APRY yeast in the broth system ([1]; YM broth, target pH 5.5): does not inhibit the growth of APRY yeast
Cl.N [NH4Cl, ammonium chloride] | 10,200 CFUs | 260,000 CFUs | 11,700 CFUs | 8,100 CFUs | 32,000 CFUs | 14,000 CFUs | 53,000 CFUs | 6,000 CFUs | 10,900 CFUs | 3,100 CFUs | 7,000 CFUs | 39,500 CFUs | 2,200 CFUs | 3,000 CFUs | 7,200 CFUs | 8,900 CFUs | 3,100 CFUs | 10,000 CFUs | 36,100 CFUs | 5,800 CFUs | Observation: APRY outgrowth / stability [2]: faster APRY die-off; APRY yeast level in broth ([1]; 0.51 N salt, day 1½): 672,000 CFUs; APRY yeast level in broth ([1]; 1.54 N salt, day 8): 2,900 CFUs; APRY yeast level in broth ([1]; 1.54 N salt, day 11): 4,600 CFUs; APRY yeast level in broth ([1]; 1.54 N salt, day 13): 40,000 CFUs; APRY yeast level in broth ([1]; 1.54 N salt, day 14): 84,000 CFUs; APRY yeast level in broth ([1]; 2.05 N salt, day 5): 700 CFUs; APRY yeast level in broth ([1]; 2.05 N salt, day 6): 700 CFUs; APRY yeast level in broth ([1]; 2.05 N salt, day 8): 1,600 CFUs; APRY yeast level in broth ([1]; 2.05 N salt, day 11): 400 CFUs; APRY yeast level in broth ([1]; 2.05 N salt, day 13): 600 CFUs; APRY yeast level in broth ([1]; 2.05 N salt, day 14): 800 CFUs
[Cl-].[Na+] [NaCl, sodium chloride] | 13,100 CFUs | 440,000 CFUs | 4,300 CFUs | 10,000 CFUs | 3,200 CFUs | 7,000 CFUs | 29,000 CFUs | 6,900 CFUs | 13,200 CFUs | 2,300 CFUs | 8,000 CFUs | 3,900 CFUs | 2,740 CFUs | 1,840 CFUs | 3,800 CFUs | 9,800 CFUs | 2,700 CFUs | 7,000 CFUs | 4,500 CFUs | 5,100 CFUs | APRY yeast level in broth ([1]; 1.54 N salt, day 8): 3,600 CFUs; APRY yeast level in broth ([1]; 1.54 N salt, day 11): 3,300 CFUs; APRY yeast level in broth ([1]; 1.54 N salt, day 13): 2,900 CFUs; APRY yeast level in broth ([1]; 1.54 N salt, day 14): 3,500 CFUs; APRY yeast level in broth ([1]; 2.05 N salt, day 5): 1,730 CFUs; APRY yeast level in broth ([1]; 2.05 N salt, day 6): 2,110 CFUs; APRY yeast level in broth ([1]; 2.05 N salt, day 8): 1,600 CFUs; APRY yeast level in broth ([1]; 2.05 N salt, day 11): 700 CFUs; APRY yeast level in broth ([1]; 2.05 N salt, day 13): 700 CFUs; APRY yeast level in broth ([1]; 2.05 N salt, day 14): 800 CFUs
[Ca+2].[Cl-].[Cl-] [calcium chloride] | – | – | – | – | – | – | – | – | – | – | – | – | – | – | – | – | – | – | – | – | Z. bailii outgrowth [3]: enhance Z. bailii outgrowth
[Cl-].[Cl-].[Mg+2] [magnesium chloride] | – | – | – | – | – | – | – | – | – | – | – | – | – | – | – | – | – | – | – | – | Z. bailii outgrowth [3]: enhance Z. bailii outgrowth
